{"source": "patent US6693216B2", "about": "“Calcium double salts” (Nutrinova Nutrition Specialties & Food Ingredients GmbH, priority 2000, dated 2004)", "key": {"[1]": {"conditions": "sealed", "from_the_text": "Salts prepared as in example 1 were dried, stored under the specified conditions without the addition of other substances and checked at regular intervals visually for discoloration: […]"}, "[2]": {"system": "Lactic acid bacteria", "conditions": "Part II, 1 g/l in apple juice pH 4.5, 25° C."}, "[3]": {"system": "Clostridia", "conditions": "Part II, 1 g/l in apple juice pH 4.5, 25° C."}, "[4]": {"system": "Bacilli", "conditions": "Part II, 1 g/l in apple juice pH 4.5, 25° C."}, "[5]": {"system": "Thermophilic bacilli", "conditions": "Part II, 1 g/l in apple juice pH 4.5, 25° C."}, "[6]": {"system": "Acetic acid bacteria", "conditions": "Part II, 1 g/l in apple juice pH 4.5, 25° C."}, "[7]": {"system": "Yeasts", "conditions": "Part II, 1 g/l in apple juice pH 4.5, 25° C."}, "[8]": {"system": "Molds I", "conditions": "Part II, 1 g/l in apple juice pH 4.5, 25° C."}, "[9]": {"system": "Molds II", "conditions": "Part II, 1 g/l in apple juice pH 4.5, 25° C."}, "[10]": {"system": "Gram-negative bacteria", "conditions": "Part II; for Number of surviving microorganisms per g of contaminated sample, Gram-negative bacteria: 1 g/l in apple juice pH 4.5, 25° C."}, "[11]": {"system": "Gram-positive bacteria", "conditions": "Part II, 1 g/l in apple juice pH 4.5, 25° C."}, "[12]": {"system": "all microorganisms used"}, "[13]": {"conditions": "1 day after inoculation (2.7 × 10^4)"}, "[14]": {"conditions": "3 days after inoculation (2.7 × 10^4)"}, "[15]": {"conditions": "7 days after inoculation (2.7 × 10^4)"}, "[16]": {"conditions": "14 days after inoculation (2.7 × 10^4)"}}, "note": "Read-outs that look alike come from different tables or passages of the source."}
{"smiles": "C/C=C/C=C/C(=O)[O-].CC(=O)[O-].[Ca+2]", "note": "[calcium acetate sorbate]", "values": [{"measurement": "Time after yellow-brown discoloration of a 1% strength aqueous solution", "setting": "[1]; dark at 7° C.", "value": ">12", "unit": "months />12 months"}, {"measurement": "Time after yellow-brown discoloration of the powder", "setting": "[1]; dark at 7° C.", "value": 12, "unit": "months />12 months"}, {"measurement": "Time after yellow-brown discoloration of a 1% strength aqueous solution", "setting": "[1]; dark at 25° C.", "value": ">12", "unit": "months />12 months"}, {"measurement": "Time after yellow-brown discoloration of the powder", "setting": "[1]; dark at 25° C.", "value": 12, "unit": "months />12 months"}, {"measurement": "Time after yellow-brown discoloration of a 1% strength aqueous solution", "setting": "[1]; under sunlight at 7° C.", "value": 12, "unit": "months />12 months"}, {"measurement": "Time after yellow-brown discoloration of the powder", "setting": "[1]; under sunlight at 7° C.", "value": 12, "unit": "months />12 months"}, {"measurement": "Time after yellow-brown discoloration of a 1% strength aqueous solution", "setting": "[1]; under sunlight at 25° C.", "value": 12, "unit": "months />12 months"}, {"measurement": "Time after yellow-brown discoloration of the powder", "setting": "[1]; under sunlight at 25° C.", "value": 12, "unit": "months />12 months"}, {"measurement": "Number of surviving microorganisms per g of contaminated sample, Lactic acid bacteria", "setting": "[2]; [13]", "value": "5.5 × 10^3 CFU/g"}, {"measurement": "Number of surviving microorganisms per g of contaminated sample, Lactic acid bacteria", "setting": "[2]; [14]", "value": "<100", "unit": "CFU/g"}, {"measurement": "Number of surviving microorganisms per g of contaminated sample, Lactic acid bacteria", "setting": "[2]; [15]", "value": "<10", "unit": "CFU/g"}, {"measurement": "Number of surviving microorganisms per g of contaminated sample, Lactic acid bacteria", "setting": "[2]; [16]", "value": "<10", "unit": "CFU/g"}, {"measurement": "Number of surviving microorganisms per g of contaminated sample, Clostridia", "setting": "[3]; 1 day after inoculation (2.9 × 10^4)", "value": "7.0 × 10^2 CFU/g"}, {"measurement": "Number of surviving microorganisms per g of contaminated sample, Clostridia", "setting": "[3]; 3 days after inoculation (2.9 × 10^4)", "value": "<100", "unit": "CFU/g"}, {"measurement": "Number of surviving microorganisms per g of contaminated sample, Clostridia", "setting": "[3]; 7 days after inoculation (2.9 × 10^4)", "value": "<10", "unit": "CFU/g"}, {"measurement": "Number of surviving microorganisms per g of contaminated sample, Clostridia", "setting": "[3]; 14 days after inoculation (2.9 × 10^4)", "value": "<10", "unit": "CFU/g"}, {"measurement": "Number of surviving microorganisms per g of contaminated sample, Bacilli", "setting": "[4]; 1 day after inoculation (3.3 × 10^4)", "value": "2.5 × 10^3 CFU/g"}, {"measurement": "Number of surviving microorganisms per g of contaminated sample, Bacilli", "setting": "[4]; 3 days after inoculation (3.3 × 10^4)", "value": "1.7 × 10^3 CFU/g"}, {"measurement": "Number of surviving microorganisms per g of contaminated sample, Bacilli", "setting": "[4]; 7 days after inoculation (3.3 × 10^4)", "value": "1.7 × 10^3 CFU/g"}, {"measurement": "Number of surviving microorganisms per g of contaminated sample, Bacilli", "setting": "[4]; 14 days after inoculation (3.3 × 10^4)", "value": "1.4 × 10^3 CFU/g"}, {"measurement": "Number of surviving microorganisms per g of contaminated sample, Thermophilic bacilli", "setting": "[5]; 1 day after inoculation (1.3 × 10^4)", "value": "2.3 × 10^3 CFU/g"}, {"measurement": "Number of surviving microorganisms per g of contaminated sample, Thermophilic bacilli", "setting": "[5]; 3 days after inoculation (1.3 × 10^4)", "value": "1.1 × 10^3 CFU/g"}, {"measurement": "Number of surviving microorganisms per g of contaminated sample, Thermophilic bacilli", "setting": "[5]; 7 days after inoculation (1.3 × 10^4)", "value": "1.0 × 10^2 CFU/g"}, {"measurement": "Number of surviving microorganisms per g of contaminated sample, Thermophilic bacilli", "setting": "[5]; 14 days after inoculation (1.3 × 10^4)", "value": "<10", "unit": "CFU/g"}, {"measurement": "Number of surviving microorganisms per g of contaminated sample, Acetic acid bacteria", "setting": "[6]; 1 day after inoculation (2.8 × 10^4)", "value": "2.5 × 10^4 CFU/g"}, {"measurement": "Number of surviving microorganisms per g of contaminated sample, Acetic acid bacteria", "setting": "[6]; 3 days after inoculation (2.8 × 10^4)", "value": "6.5 × 10^3 CFU/g"}, {"measurement": "Number of surviving microorganisms per g of contaminated sample, Acetic acid bacteria", "setting": "[6]; 7 days after inoculation (2.8 × 10^4)", "value": "1.7 × 10^5 CFU/g"}, {"measurement": "Number of surviving microorganisms per g of contaminated sample, Acetic acid bacteria", "setting": "[6]; 14 days after inoculation (2.8 × 10^4)", "value": "1.6 × 10^5 CFU/g"}, {"measurement": "Number of surviving microorganisms per g of contaminated sample, Yeasts", "setting": "[7]; 1 day after inoculation (2.6 × 10^4)", "value": "1.3 × 10^4 CFU/g"}, {"measurement": "Number of surviving microorganisms per g of contaminated sample, Yeasts", "setting": "[7]; 3 days after inoculation (2.6 × 10^4)", "value": "3.4 × 10^3 CFU/g"}, {"measurement": "Number of surviving microorganisms per g of contaminated sample, Yeasts", "setting": "[7]; 7 days after inoculation (2.6 × 10^4)", "value": "<100", "unit": "CFU/g"}, {"measurement": "Number of surviving microorganisms per g of contaminated sample, Yeasts", "setting": "[7]; 14 days after inoculation (2.6 × 10^4)", "value": "<10", "unit": "CFU/g"}, {"measurement": "Number of surviving microorganisms per g of contaminated sample, Molds I", "setting": "[8]; 1 day after inoculation (2.2 × 10^4)", "value": "3.7 × 10^3 CFU/g"}, {"measurement": "Number of surviving microorganisms per g of contaminated sample, Molds I", "setting": "[8]; 3 days after inoculation (2.2 × 10^4)", "value": "5.0 × 10^2 CFU/g"}, {"measurement": "Number of surviving microorganisms per g of contaminated sample, Molds I", "setting": "[8]; 7 days after inoculation (2.2 × 10^4)", "value": "1.0 × 10^2 CFU/g"}, {"measurement": "Number of surviving microorganisms per g of contaminated sample, Molds I", "setting": "[8]; 14 days after inoculation (2.2 × 10^4)", "value": "<100", "unit": "CFU/g"}, {"measurement": "Number of surviving microorganisms per g of contaminated sample, Molds II", "setting": "[9]; 1 day after inoculation (2.5 × 10^4)", "value": "4.4 × 10^3 CFU/g"}, {"measurement": "Number of surviving microorganisms per g of contaminated sample, Molds II", "setting": "[9]; 3 days after inoculation (2.5 × 10^4)", "value": "<100", "unit": "CFU/g"}, {"measurement": "Number of surviving microorganisms per g of contaminated sample, Molds II", "setting": "[9]; 7 days after inoculation (2.5 × 10^4)", "value": "<10", "unit": "CFU/g"}, {"measurement": "Number of surviving microorganisms per g of contaminated sample, Molds II", "setting": "[9]; 14 days after inoculation (2.5 × 10^4)", "value": "<10", "unit": "CFU/g"}, {"measurement": "Growth of Gram-negative bacteria", "setting": "[10]; 1 g/l in apple juice pH 4.5", "value": "substantially inhibited"}, {"measurement": "Number of surviving microorganisms per g of contaminated sample, Gram-negative bacteria", "setting": "[10]; [13]", "value": "9.0 × 10^3 CFU/g"}, {"measurement": "Number of surviving microorganisms per g of contaminated sample, Gram-negative bacteria", "setting": "[10]; [14]", "value": "3.2 × 10^3 CFU/g"}, {"measurement": "Number of surviving microorganisms per g of contaminated sample, Gram-negative bacteria", "setting": "[10]; [15]", "value": "1.5 × 10^3 CFU/g"}, {"measurement": "Number of surviving microorganisms per g of contaminated sample, Gram-negative bacteria", "setting": "[10]; [16]", "value": "4.2 × 10^4 CFU/g"}, {"measurement": "Number of surviving microorganisms per g of contaminated sample, Gram-positive bacteria", "setting": "[11]; 1 day after inoculation (2.1 × 10^4)", "value": "2.5 × 10^4 CFU/g"}, {"measurement": "Number of surviving microorganisms per g of contaminated sample, Gram-positive bacteria", "setting": "[11]; 3 days after inoculation (2.1 × 10^4)", "value": "6.2 × 10^3 CFU/g"}, {"measurement": "Number of surviving microorganisms per g of contaminated sample, Gram-positive bacteria", "setting": "[11]; 7 days after inoculation (2.1 × 10^4)", "value": "2.7 × 10^3 CFU/g"}, {"measurement": "Number of surviving microorganisms per g of contaminated sample, Gram-positive bacteria", "setting": "[11]; 14 days after inoculation (2.1 × 10^4)", "value": "<10", "unit": "CFU/g"}, {"measurement": "Preservative action against the microorganisms used", "setting": "[12]; 1 g/l in apple juice pH 4.5, up to 14 days", "value": "acts well and persistently against all microorganisms used except for acetic acid bacteria and bacilli"}, {"measurement": "Preservative action compared with the single salts", "setting": "[12]; same concentration, 1 g/l in apple juice pH 4.5", "value": "acts surprisingly better than calcium acetate (in particular against lactic acid bacteria, yeasts, molds and Gram-positive bacteria) or calcium sorbate (in particular against lactic acid bacteria) used alone"}]}
